Non-standard residues stand in square brackets, D forms with d. Residues, ends and D or L forms follow the SMILES beside them. *: point of attachment. Boc = CC(C)(C)OC(=O)*; Aib = CC(C)(N)C(=O)O; Bn = c1ccc(C*)cc1
The compounds below were run on Aβ production in Chinese hamster ovary (CHO) cells stably transfected with human APP (assay: cell-based assay of total Aβ production in CHO cells stably transfected with human APP). Conditions: CHO cells stably transfected with human APP; total Aβ; read-out: IC50 (concentration that reduced production of total Aβ by 50%).
Text: Based on the helical model for the APP transmembrane domain, short peptides were designed to adopt a similar conformation that block γ-secretase activity. Judicious replacement of selected residues of short APP-derived peptides with 2-aminoisobutyric acid (Aib), a known helix-inducing amino acid (19, 20), provided peptides that, in principle, mimic the γ-secretase cleavage site on one face of the helix, with Aib residues on the other face. Aib-containing peptides were identified that inhibit Aβ production in APP-transfected cells with 50 percent inhibitory concentrations (IC50's) as low as 2 μM. […] The crystal structure of this compound has been determined, and the peptide is fully helical (19). In certain embodiments the compounds of the invention have structures that are based on the partial APP sequence Val-Gly-Gly-Val-Val-Ile-Ala-Thr-Val-Ile-Val-Ile (SEQ ID NO:12; see FIG. 1). Basing the structures of the compounds of the invention on the partial APP sequence could enhance in vivo specificity of the compounds.
The top set of peptidomimetics (SEQ ID NOs: 1-5) was designed considering the cleavage leading to Aβ42, and the bottom set (SEQ ID NOs: 6-10) was designed considering the cleavage site leading to Aβ40. IC50 is the concentration of compound that reduced production of total Aβ by 50% in a cell-based assay using Chinese hamster ovary (CHO) cells stably transfected with human APP.
Starting from the reference D-decapeptide having SEQ ID NO:10 (IC50=90 nM), the enantiomers of the helical peptide L-series were tested for inhibitory activity. […] This greater than 40-fold loss of activity compared to the cell-free assay may be due to the need to enter into and/or cross cell membranes or some susceptibility to metabolic degradation.

Compound	IC50 [nM]
Boc-Aib-Ile-Ala-Thr(OBz)-Aib-Ile-Val-Aib-OMe [SEQ ID NO:3]	10000
Boc-Aib-Val-Val-Ile-Aib-Thr(OBz)-Val-Aib-OMe [SEQ ID NO:8]	6000

These compounds were tested against γ-secretase (Homo sapiens, UniProt P49768) (assay: cell-free γ-secretase assay using detergent-solubilized membranes from HeLa cells and a recombinant APP-based substrate). Conditions: 50% inhibition of Aβ40 production; at least three independent experiments; read-out: Cell-free Assay IC50.
Assay type: biochemical
Set-up: detergent-solubilized membranes from HeLa cells; endogenous in cells; host or cells: HeLa cells (detergent-solubilized membranes)
Protocol: Compounds were tested in a γ-secretase assay using detergent-solubilized membranes from HeLa cells and a recombinant APP-based substrate (Table 2, 18). […] Moreover, the γ-secretase inhibition appears to show dependence on length.

Compound	IC50 [nM]
CC[C@H](C)[C@H](NC(=O)[C@@H](NC(=O)[C@@H](NC(=O)OC(C)(C)C)C(C)C)C(C)C)C(=O)NC(C)(C)C(=O)N[C@H](C(=O)N[C@H](C(=O)NC(C)(C)C(=O)N[C@H](C(=O)N[C@H](C(=O)NC(C)(C)C(=O)OC)[C@@H](C)CC)C(C)C)C(C)C)[C@@H](C)OCc1ccccc1 [SEQ ID NO:15 L-peptide, Boc-Val-Val-Ile-Aib-Thr(OBz)-Val-Aib-Val-Ile-Aib-OMe] (Boc-VVI[Aib]T(Bn)V[Aib]VI[Aib]-OMe)	10000
CC[C@H](C)[C@H](NC(=O)[C@@H](NC(=O)[C@@H](NC(=O)C(C)(C)NC(=O)OC(C)(C)C)C(C)C)C(C)C)C(=O)NC(C)(C)C(=O)N[C@H](C(=O)N[C@H](C(=O)NC(C)(C)C(=O)N[C@H](C(=O)N[C@H](C(=O)NC(C)(C)C(=O)OC)[C@@H](C)CC)C(C)C)C(C)C)[C@@H](C)OCc1ccccc1 [SEQ ID NO:16 L-peptide, Boc-Aib-Val-Val-Ile-Aib-Thr(OBz)-Val-Aib-Val-Ile-Aib-OMe] (Boc-[Aib]VVI[Aib]T(Bn)V[Aib]VI[Aib]-OMe)	3100
CC[C@H](C)[C@H](NC(=O)[C@@H](NC(=O)[C@@H](NC(=O)C(C)(C)NC(=O)CNC(=O)[C@@H](NC(=O)OC(C)(C)C)C(C)C)C(C)C)C(C)C)C(=O)NC(C)(C)C(=O)N[C@H](C(=O)N[C@H](C(=O)NC(C)(C)C(=O)N[C@H](C(=O)N[C@H](C(=O)NC(C)(C)C(=O)OC)[C@@H](C)CC)C(C)C)C(C)C)[C@@H](C)OCc1ccccc1 [SEQ ID NO:18 L-peptide, Boc-Val-Gly-Aib-Val-Val-Ile-Aib-Thr(OBz)-Val-Aib-Val-Ile-Aib-OMe] (Boc-VG[Aib]VVI[Aib]T(Bn)V[Aib]VI[Aib]-OMe)	780
CC[C@H](C)[C@H](NC(=O)[C@@H](NC(=O)[C@@H](NC(=O)C(C)(C)NC(=O)CNC(=O)[C@@H](NC(=O)C(C)(C)NC(=O)OC(C)(C)C)C(C)C)C(C)C)C(C)C)C(=O)NC(C)(C)C(=O)N[C@H](C(=O)N[C@H](C(=O)NC(C)(C)C(=O)N[C@H](C(=O)N[C@H](C(=O)NC(C)(C)C(=O)OC)[C@@H](C)CC)C(C)C)C(C)C)[C@@H](C)OCc1ccccc1 [SEQ ID NO:19 L-peptide, Boc-Aib-Val-Gly-Aib-Val-Val-Ile-Aib-Thr(OBz)-Val-Aib-Val-Ile-Aib-OMe] (Boc-[Aib]VG[Aib]VVI[Aib]T(Bn)V[Aib]VI[Aib]-OMe)	910 ± 170
CC[C@H](C)[C@H](NC(=O)[C@@H](NC(=O)[C@@H](NC(=O)C(C)(C)NC(=O)CNC(=O)[C@@H](NC(=O)C(C)(C)NC(=O)[C@H](CC(C)C)NC(=O)OC(C)(C)C)C(C)C)C(C)C)C(C)C)C(=O)NC(C)(C)C(=O)N[C@H](C(=O)N[C@H](C(=O)NC(C)(C)C(=O)N[C@H](C(=O)N[C@H](C(=O)NC(C)(C)C(=O)OC)[C@@H](C)CC)C(C)C)C(C)C)[C@@H](C)OCc1ccccc1 [SEQ ID NO:20 L-peptide, Boc-Leu-Aib-Val-Gly-Aib-Val-Val-Ile-Aib-Thr(OBz)-Val-Aib-Val-Ile-Aib-OMe] (Boc-L[Aib]VG[Aib]VVI[Aib]T(Bn)V[Aib]VI[Aib]-OMe)	4700
CC[C@H](C)[C@H](NC(=O)[C@@H](NC(=O)[C@@H](NC(=O)C(C)(C)NC(=O)CNC(=O)[C@@H](NC(=O)C(C)(C)NC(=O)[C@H](CC(C)C)NC(=O)CNC(=O)OC(C)(C)C)C(C)C)C(C)C)C(C)C)C(=O)NC(C)(C)C(=O)N[C@H](C(=O)N[C@H](C(=O)NC(C)(C)C(=O)N[C@H](C(=O)N[C@H](C(=O)NC(C)(C)C(=O)OC)[C@@H](C)CC)C(C)C)C(C)C)[C@@H](C)OCc1ccccc1 [SEQ ID NO:21 L-peptide, Boc-Gly-Leu-Aib-Val-Gly-Aib-Val-Val-Ile-Aib-Thr(OBz)-Val-Aib-Val-Ile-Aib-OMe] (Boc-GL[Aib]VG[Aib]VVI[Aib]T(Bn)V[Aib]VI[Aib]-OMe)	11000

Continued, values first:

IC50 [nM]	Compound
25 ± 3	CC[C@@H](C)[C@@H](NC(=O)[C@H](NC(=O)[C@H](NC(=O)OC(C)(C)C)C(C)C)C(C)C)C(=O)NC(C)(C)C(=O)N[C@@H](C(=O)N[C@@H](C(=O)NC(C)(C)C(=O)N[C@@H](C(=O)N[C@@H](C(=O)NC(C)(C)C(=O)OC)[C@H](C)CC)C(C)C)C(C)C)[C@H](C)OCc1ccccc1 [SEQ ID NO:15 D-peptide, Boc-Val-Val-Ile-Aib-Thr(OBz)-Val-Aib-Val-Ile-Aib-OMe] (Boc-[dV][dV][dI][Aib][dT](Bn)[dV][Aib][dV][dI][Aib]-OMe)
28 ± 19	CC[C@@H](C)[C@@H](NC(=O)[C@H](NC(=O)[C@H](NC(=O)C(C)(C)NC(=O)OC(C)(C)C)C(C)C)C(C)C)C(=O)NC(C)(C)C(=O)N[C@@H](C(=O)N[C@@H](C(=O)NC(C)(C)C(=O)N[C@@H](C(=O)N[C@@H](C(=O)NC(C)(C)C(=O)OC)[C@H](C)CC)C(C)C)C(C)C)[C@H](C)OCc1ccccc1 [SEQ ID NO:16 D-peptide, Boc-Aib-Val-Val-Ile-Aib-Thr(OBz)-Val-Aib-Val-Ile-Aib-OMe] (Boc-[Aib][dV][dV][dI][Aib][dT](Bn)[dV][Aib][dV][dI][Aib]-OMe)
12 ± 4	CC[C@@H](C)[C@@H](NC(=O)[C@H](NC(=O)[C@H](NC(=O)C(C)(C)NC(=O)CNC(=O)OC(C)(C)C)C(C)C)C(C)C)C(=O)NC(C)(C)C(=O)N[C@@H](C(=O)N[C@@H](C(=O)NC(C)(C)C(=O)N[C@@H](C(=O)N[C@@H](C(=O)NC(C)(C)C(=O)OC)[C@H](C)CC)C(C)C)C(C)C)[C@H](C)OCc1ccccc1 [SEQ ID NO:17 D-peptide, Boc-Gly-Aib-Val-Val-Ile-Aib-Thr(OBz)-Val-Aib-Val-Ile-Aib-OMe] (Boc-G[Aib][dV][dV][dI][Aib][dT](Bn)[dV][Aib][dV][dI][Aib]-OMe)
360	CC[C@H](C)[C@H](NC(=O)[C@@H](NC(=O)[C@@H](NC(=O)C(C)(C)NC(=O)CNC(=O)OC(C)(C)C)C(C)C)C(C)C)C(=O)NC(C)(C)C(=O)N[C@H](C(=O)N[C@H](C(=O)NC(C)(C)C(=O)N[C@H](C(=O)N[C@H](C(=O)NC(C)(C)C(=O)OC)[C@@H](C)CC)C(C)C)C(C)C)[C@@H](C)OCc1ccccc1 [SEQ ID NO:17 L-peptide, Boc-Gly-Aib-Val-Val-Ile-Aib-Thr(OBz)-Val-Aib-Val-Ile-Aib-OMe] (Boc-G[Aib]VVI[Aib]T(Bn)V[Aib]VI[Aib]-OMe)
14 ± 10	CC[C@@H](C)[C@@H](NC(=O)[C@H](NC(=O)[C@H](NC(=O)C(C)(C)NC(=O)CNC(=O)[C@H](NC(=O)C(C)(C)NC(=O)OC(C)(C)C)C(C)C)C(C)C)C(C)C)C(=O)NC(C)(C)C(=O)N[C@@H](C(=O)N[C@@H](C(=O)NC(C)(C)C(=O)N[C@@H](C(=O)N[C@@H](C(=O)NC(C)(C)C(=O)OC)[C@H](C)CC)C(C)C)C(C)C)[C@H](C)OCc1ccccc1 [SEQ ID NO:19 D-peptide, Boc-Aib-Val-Gly-Aib-Val-Val-Ile-Aib-Thr(OBz)-Val-Aib-Val-Ile-Aib-OMe] (Boc-[Aib][dV]G[Aib][dV][dV][dI][Aib][dT](Bn)[dV][Aib][dV][dI][Aib]-OMe)
16 ± 7	CC[C@@H](C)[C@@H](NC(=O)[C@H](NC(=O)[C@H](NC(=O)C(C)(C)NC(=O)CNC(=O)[C@H](NC(=O)C(C)(C)NC(=O)[C@@H](CC(C)C)NC(=O)OC(C)(C)C)C(C)C)C(C)C)C(C)C)C(=O)NC(C)(C)C(=O)N[C@@H](C(=O)N[C@@H](C(=O)NC(C)(C)C(=O)N[C@@H](C(=O)N[C@@H](C(=O)NC(C)(C)C(=O)OC)[C@H](C)CC)C(C)C)C(C)C)[C@H](C)OCc1ccccc1 [SEQ ID NO:20 D-peptide, Boc-Leu-Aib-Val-Gly-Aib-Val-Val-Ile-Aib-Thr(OBz)-Val-Aib-Val-Ile-Aib-OMe] (Boc-[dL][Aib][dV]G[Aib][dV][dV][dI][Aib][dT](Bn)[dV][Aib][dV][dI][Aib]-OMe)
26 ± 21	CC[C@@H](C)[C@@H](NC(=O)[C@H](NC(=O)[C@H](NC(=O)C(C)(C)NC(=O)CNC(=O)[C@H](NC(=O)C(C)(C)NC(=O)[C@@H](CC(C)C)NC(=O)CNC(=O)OC(C)(C)C)C(C)C)C(C)C)C(C)C)C(=O)NC(C)(C)C(=O)N[C@@H](C(=O)N[C@@H](C(=O)NC(C)(C)C(=O)N[C@@H](C(=O)N[C@@H](C(=O)NC(C)(C)C(=O)OC)[C@H](C)CC)C(C)C)C(C)C)[C@H](C)OCc1ccccc1 [SEQ ID NO:21 D-peptide, Boc-Gly-Leu-Aib-Val-Gly-Aib-Val-Val-Ile-Aib-Thr(OBz)-Val-Aib-Val-Ile-Aib-OMe] (Boc-G[dL][Aib][dV]G[Aib][dV][dV][dI][Aib][dT](Bn)[dV][Aib][dV][dI][Aib]-OMe)

Same assay, conditions: L-series, cell-free assay

Compound	increase in potency over the reference L-decapeptide having SEQ ID NO:10 [fold]
CC[C@H](C)[C@H](NC(=O)[C@@H](NC(=O)[C@@H](NC(=O)C(C)(C)NC(=O)CNC(=O)OC(C)(C)C)C(C)C)C(C)C)C(=O)NC(C)(C)C(=O)N[C@H](C(=O)N[C@H](C(=O)NC(C)(C)C(=O)N[C@H](C(=O)N[C@H](C(=O)NC(C)(C)C(=O)OC)[C@@H](C)CC)C(C)C)C(C)C)[C@@H](C)OCc1ccccc1 [SEQ ID NO:17 L-peptide, Boc-Gly-Aib-Val-Val-Ile-Aib-Thr(OBz)-Val-Aib-Val-Ile-Aib-OMe] (Boc-G[Aib]VVI[Aib]T(Bn)V[Aib]VI[Aib]-OMe)	~100
CC[C@H](C)[C@H](NC(=O)[C@@H](NC(=O)[C@@H](NC(=O)C(C)(C)NC(=O)CNC(=O)[C@@H](NC(=O)OC(C)(C)C)C(C)C)C(C)C)C(C)C)C(=O)NC(C)(C)C(=O)N[C@H](C(=O)N[C@H](C(=O)NC(C)(C)C(=O)N[C@H](C(=O)N[C@H](C(=O)NC(C)(C)C(=O)OC)[C@@H](C)CC)C(C)C)C(C)C)[C@@H](C)OCc1ccccc1 [SEQ ID NO:18 L-peptide, Boc-Val-Gly-Aib-Val-Val-Ile-Aib-Thr(OBz)-Val-Aib-Val-Ile-Aib-OMe] (Boc-VG[Aib]VVI[Aib]T(Bn)V[Aib]VI[Aib]-OMe)	~40

Reference: patent US7501397B2, “Helical peptidomimetics with enhanced activity” (The Brigham and Women's Hospital, Inc., priority 2004, dated 2009)
